Consider nine compounds from patent US20240148821A1, “PHARMACEUTICAL USE OF CYCLIC PEPTIDE COMPOUND” (CHUGAI SEIYAKU KABUSHIKI KAISHA, priority 2021, published 2024).

By IC50 is commonly meant the midpoint of a concentration-inhibition curve.

Numbered stars: 1 amine (or outer) side, 2 acyl side, 3 side chain; on linkers, the order of the positions; unused ones are H or OH. Bridge positions count the residues as written; N and C are the ends. Square brackets hold non-standard residues; d marks the D form. Peptide text beside a SMILES is read from it. * marks the point of attachment. hPhe(3-Cl-4-CF3) = N[C@@H](CCc1ccc(C(F)(F)F)c(Cl)c1)C(=O)O; hPhe(3-F,4-CF3) = N[C@@H](CCc1ccc(C(F)(F)F)c(F)c1)C(=O)O; Pro(trans-4-Ph) = O=C(O)[C@@H]1C[C@@H](c2ccccc2)CN1; NMePhe(4-Me) = CN[C@@H](Cc1ccc(C)cc1)C(=O)O; hPhe(3-Cl) = N[C@@H](CCc1cccc(Cl)c1)C(=O)O; NMeAla(cPent) = CN[C@@H](CC1CCCC1)C(=O)O; NMeGly(cPent) = CN[C@H](C(=O)O)C1CCCC1; NMe4Pal = CN[C@@H](Cc1ccncc1)C(=O)O; NMeCha = CN[C@@H](CC1CCCCC1)C(=O)O; NMeChg = CN[C@H](C(=O)O)C1CCCCC1; NMeI = CC[C@H](C)[C@H](NC)C(=O)O; X58 = CNCCOCCN(CC(=O)[*:2])[*:1]; NMeD = CN[C@@H](CC(=O)O)C(=O)O; NMeL = CN[C@@H](CC(C)C)C(=O)O; NMeV = CN[C@H](C(=O)O)C(C)C; NMeS = CN[C@@H](CO)C(=O)O; Morpholide = C1CN(*)CCO1; NAllylGly = C=CCNCC(=O)O; NMeA = CN[C@@H](C)C(=O)O; Piperidide = C1CCN(*)CC1; Ac5c = NC1(C(=O)O)CCCC1; Aze = O=C(O)[C@@H]1CCN1; Cyclobutyl = C1CC(*)C1; Sar = CNCC(=O)O

For this experiment, the target named is protein-protein interaction between Kras and SOS1 (biotin-tagged human Kras loaded with GDP, His-tagged human SOS1) (Homo sapiens (Human), UniProt P01116, G12D). In words: Protein-protein interaction inhibition between Kras and SOS1 (KrasG12D-SOS PPI) using AlphaScreen.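 Note: kras produced in E. coli, Ni-coupled donor beads and streptavidin acceptor beads, excitation 680 nm with emission detected at 520–620 nm via singlet oxygen transfer.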 It is filed as biochemical. To be noted: AlphaScreen; biotin-tagged human Kras loaded with GDP, His-tagged human SOS1; read-out: KRAS G12D-SOS PPI IC50. A general note: Bead proximity is the source of the signal in Alpha formats.
Take `CC[C@H](C)[C@@H]1NC(=O)[C@H](CC(C)C)N(C)C(=O)C[C@@H](C(=O)N(C)C)N(C)C(=O)[C@H](C2CCCC2)N(C)C(=O)C2(CCCC2)NC(=O)CN(CCOCCNC)C(=O)[C@H](CCc2ccc(C(F)(F)F)c(Cl)c2)NC(=O)CN(C)C(=O)[C@H](CC2CCCCC2)N(C)C(=O)[C@@H]2CCN2C(=O)[C@H](C)N(C)C1=O` [Compound 2183, (3S,6S,9S,13S,16S,25S,31S,34S)-25-[2-[3-chloro-4-(trifluoromethyl)phenyl]ethyl]-31-(cyclohexylmethyl)-16-cyclopentyl-9-isobutyl-N,N,3,4,10,14,17,29,32-nonamethyl-23-[2-[2-(methylamino)ethoxy]ethyl]-6-[(1S)-1-methylpropyl]-2,5,8,11,15,18,21,24,27,30,33-undecaoxo-spiro[1,4,7,10,14,17,20,23,26,29,32-undecazabicyclo[32.2.0]hexatriacontane-19,1′-cyclopentane]-13-carboxamide] ([NMeL]I[NMeA][Aze][NMeCha][Sar][hPhe(3-Cl-4-CF3)][X58][Ac5c][NMeGly(cPent)][NMeD]-NMe2; lactam N-11): the IC50 was 1.9 nM. With `C=CCN1CC(=O)NC2(CCCC2)C(=O)N(C)[C@@H](C2CCCCC2)C(=O)N(C)[C@H](C(=O)N2CCCCC2)CC(=O)N(C)[C@@H](CC(C)C)C(=O)N[C@@H]([C@@H](C)CC)C(=O)N(C)CC(=O)N(C)CC(=O)N(C)[C@@H](CC2CCCCC2)C(=O)N(C)CC(=O)N[C@@H](CCc2ccc(C(F)(F)F)c(Cl)c2)C1=O` [Compound 899] ([NMeL]I[Sar][Sar][NMeCha][Sar][hPhe(3-Cl-4-CF3)][NAllylGly][Ac5c][NMeChg][NMeD]-Piperidide; lactam N-11 (inferred); C-terminus assumed), the IC50 came to 1.9 nM. As for `CC[C@H](C)[C@@H]1NC(=O)[C@H](CC2CCCC2)N(C)C(=O)C[C@@H](C(=O)N2CCOCC2)N(C)C(=O)[C@H](C2CCCC2)N(C)C(=O)C2(CCCC2)NC(=O)[C@@H]2CCCN2C(=O)[C@H](CCc2ccc(C(F)(F)F)c(Cl)c2)NC(=O)CN(C)C(=O)[C@H](C2CCCC2)N(C)C(=O)[C@@H]2CCN2C(=O)[C@H](C)NC1=O` [Compound 1145] ([NMeAla(cPent)]IA[Aze][NMeGly(cPent)][Sar][hPhe(3-Cl-4-CF3)]P[Ac5c][NMeGly(cPent)][NMeD]-Morpholide; lactam N-11), the figure is 1.1 nM; as for `CC[C@H](C)[C@@H]1NC(=O)[C@H](CC(C)C)N(C)C(=O)C[C@@H](C(=O)N2CCCCC2)N(C)C(=O)[C@H]([C@@H](C)CC)N(C)C(=O)C2(CCCC2)NC(=O)[C@@H]2CCCN2C(=O)[C@H](CCc2ccc(C(F)(F)F)c(Cl)c2)NC(=O)CN(C)C(=O)[C@H](COC2CCC2)N(C)C(=O)[C@@H]2CCN2C(=O)[C@H](C)N(C)C1=O` [Compound 885] ([NMeL]I[NMeA][Aze][NMeS](Cyclobutyl)[Sar][hPhe(3-Cl-4-CF3)]P[Ac5c][NMeI][NMeD]-Piperidide; lactam N-11), 1.9 nM; as for `CC[C@H](C)[C@@H]1NC(=O)[C@H](CC(C)C)N(C)C(=O)C[C@@H](C(=O)N2CCCCC2)N(C)C(=O)[C@H](C2CCCCC2)N(C)C(=O)C2(CCCC2)NC(=O)[C@H](Cc2ccncc2)N(C)C(=O)[C@H](CCc2ccc(C(F)(F)F)c(Cl)c2)NC(=O)CN(C)C(=O)[C@H](CC2CCCCC2)N(C)C(=O)CN(C)C(=O)CN(C)C1=O` [Compound 36] ([NMeL]I[Sar][Sar][NMeCha][Sar][hPhe(3-Cl-4-CF3)][NMe4Pal][Ac5c][NMeChg][NMeD]-Piperidide; lactam N-11), 4.7 nM.

With `CC[C@H](C)[C@@H]1NC(=O)[C@H](CC2CCCC2)N(C)C(=O)C[C@@H](C(=O)N(C)C)N(C)C(=O)[C@H](C2CCCC2)N(C)C(=O)C2(CCCC2)NC(=O)[C@@H]2CCCN2C(=O)[C@H](CCc2ccc(C(F)(F)F)c(F)c2)NC(=O)CN(C)C(=O)[C@H](CC2CCCCC2)N(C)C(=O)[C@@H]2CCN2C(=O)[C@H](C)NC1=O` [Compound 1340] ([NMeAla(cPent)]IA[Aze][NMeCha][Sar][hPhe(3-F,4-CF3)]P[Ac5c][NMeGly(cPent)][NMeD]-NMe2; lactam N-11), the IC50 stood at 1.2 nM. Turning to `CC[C@H](C)[C@@H]1NC(=O)[C@H](CC(C)C)N(C)C(=O)C[C@@H](C(=O)N2CCCCC2)N(C)C(=O)[C@H](C2CCCCC2)N(C)C(=O)C2(CCCC2)NC(=O)[C@@H]2C[C@@H](c3ccccc3)CN2C(=O)[C@H](CCc2ccc(C(F)(F)F)c(Cl)c2)NC(=O)CN(C)C(=O)[C@H](CC2CCCCC2)N(C)C(=O)CN(C)C(=O)CN(C)C1=O` [Compound 90] ([NMeL]I[Sar][Sar][NMeCha][Sar][hPhe(3-Cl-4-CF3)][Pro(trans-4-Ph)][Ac5c][NMeChg][NMeD]-Piperidide; lactam N-11), the IC50 stood at 5 nM. With `CC[C@H](C)[C@@H]1NC(=O)[C@H](C)N(C)C(=O)C[C@@H](C(=O)N2CCCCC2)N(C)C(=O)[C@H](C(C)C)N(C)C(=O)C2(CCCC2)NC(=O)[C@@H]2CCCN2C(=O)[C@H](CCc2cccc(Cl)c2)NC(=O)CN(C)C(=O)[C@H](CC2CCCCC2)N(C)C(=O)[C@@H]2CCN2C(=O)[C@H](C)N(C)C1=O` [Compound 625] ([NMeA]I[NMeA][Aze][NMeCha][Sar][hPhe(3-Cl)]P[Ac5c][NMeV][NMeD]-Piperidide; lactam N-11) the figure was 70 nM; with `CC[C@H](C)[C@@H]1NC(=O)[C@H](CC(C)C)N(C)C(=O)C[C@@H](C(=O)N(C)C)N(C)C(=O)[C@H](C2CCCCC2)N(C)C(=O)C2(CCCC2)NC(=O)[C@@H]2CCCN2C(=O)[C@H](CCc2ccc(C(F)(F)F)c(Cl)c2)NC(=O)CN(C)C(=O)[C@H](Cc2ccc(C)cc2)N(C)C(=O)[C@@H]2CCN2C(=O)[C@H](C)N(C)C1=O` [Compound 1685] ([NMeL]I[NMeA][Aze][NMePhe(4-Me)][Sar][hPhe(3-Cl-4-CF3)]P[Ac5c][NMeChg][NMeD]-NMe2; lactam N-11), 0.6 nM.
